Assay in all cases: pro-apoptotic nuclear morphology in cancer cells – imaging, DAPI staining, cell line panel, probe, mechanism study for MCL1-BIM inhibitor project, late-stage follow-up (AID 624396)
The subject of one assay is 1780 MCl1. Conditions: cancer cell panel apoptosis.
Another assay has as its system 1863 BCL-XL. The following applies: cancer cell panel apoptosis.
For a further assay, the system named is DHL-10. Conditions: cancer cell panel apoptosis, single IC50 determination, other campaign.
Another assay has as its system DHL-6. The following applies: cancer cell panel apoptosis.
The test system of another assay is NCI-H929. The following applies: cancer cell panel apoptosis.

The structures appear in SMILES notation. “And” between values parts separate entries of the source, which are not always exact repeats. Identical values can stand only once.

For orientation: IC50 means the concentration that inhibits the measured activity by half. Regarding `CCN1CCN(C(c2ccc(C(F)(F)F)cc2)c2ccc3cccnc3c2O)CC1` (stereo not given), the IC50 was 700 nM and 300 nM with 1780 MCl1; 1200 nM and 1100 nM in the assay on 1863 BCL-XL; over 25000 nM with DHL-10; 2200 nM and 3300 nM with DHL-6; 3600 nM and 1600 nM in the assay on NCI-H929.

These data come from PubChem BioAssay AID624396 (The Scripps Research Institute Molecular Screening Center, 2012).
